Earlier results in PMC4411882, “Developmental Potential for Endomorphin Opioidmimetic Drugs” (International Journal of Medicinal Chemistry, 2012).
Like-named read-outs stand apart in the source and are kept apart here.

Legend:
[1] = target: T1, μ-opioid receptor (Rattus norvegicus, UniProt P33535); parameters: gene Oprm1; settings: read-out: Kiμ
[2] = target: T2, δ-opioid receptor (Rattus norvegicus, UniProt P33533); parameters: gene Oprd1; settings: read-out: Kiδ
[3] = target: T3, μ-opioid receptor (GPI) (Cavia porcellus, UniProt P97266); parameters: species or system guinea pig ileum
T3 construct: gene OPRM1; guinea pig ileum (GPI) bioassay
Description: (§1) Therefore, we substituted hydrophobic groups in lieu of the phenethyl group to develop the class of H-Dmt-Pro-Phe-NH-X ligands (Figure 1).

[4] = target: T1, μ-opioid receptor; parameters: gene Oprm1; rat brain P2 synaptosomal preparations; species or system rat brain P2 synaptosomal preparations; settings: read-out: Kiμ
[5] = target: T2, δ-opioid receptor; parameters: gene Oprd1; rat brain P2 synaptosomal preparations; species or system rat brain P2 synaptosomal preparations; settings: read-out: Kiδ
[6] = target: T4, δ-opioid receptor (MVD) (Mus musculus, UniProt P32300); parameters: species or system mouse vas deferens
T4 construct: gene Oprd1; mouse vas deferens (MVD) bioassay
Description: as §1

T1 sequence (P33535 whole entry): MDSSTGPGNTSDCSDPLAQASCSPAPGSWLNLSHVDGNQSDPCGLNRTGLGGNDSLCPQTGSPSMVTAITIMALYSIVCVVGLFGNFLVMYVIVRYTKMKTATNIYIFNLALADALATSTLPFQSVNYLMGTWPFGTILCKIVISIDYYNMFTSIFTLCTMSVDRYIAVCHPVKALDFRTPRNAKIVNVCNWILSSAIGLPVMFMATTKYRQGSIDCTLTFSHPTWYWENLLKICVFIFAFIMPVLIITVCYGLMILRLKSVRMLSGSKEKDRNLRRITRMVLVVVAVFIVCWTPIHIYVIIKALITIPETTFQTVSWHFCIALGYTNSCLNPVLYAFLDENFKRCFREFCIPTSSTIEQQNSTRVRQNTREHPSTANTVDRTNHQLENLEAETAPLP
T2 sequence (P33533 whole entry): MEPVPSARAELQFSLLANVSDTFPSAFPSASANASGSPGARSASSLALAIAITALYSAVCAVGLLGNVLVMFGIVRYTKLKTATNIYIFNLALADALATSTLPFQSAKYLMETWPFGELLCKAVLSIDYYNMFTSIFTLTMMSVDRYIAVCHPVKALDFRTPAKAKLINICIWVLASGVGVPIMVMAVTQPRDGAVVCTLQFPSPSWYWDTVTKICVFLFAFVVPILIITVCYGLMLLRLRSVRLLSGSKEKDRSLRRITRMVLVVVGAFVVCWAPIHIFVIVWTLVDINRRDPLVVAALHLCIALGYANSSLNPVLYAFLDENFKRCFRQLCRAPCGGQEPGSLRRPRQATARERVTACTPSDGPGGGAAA
T4 sequence (P32300 whole entry): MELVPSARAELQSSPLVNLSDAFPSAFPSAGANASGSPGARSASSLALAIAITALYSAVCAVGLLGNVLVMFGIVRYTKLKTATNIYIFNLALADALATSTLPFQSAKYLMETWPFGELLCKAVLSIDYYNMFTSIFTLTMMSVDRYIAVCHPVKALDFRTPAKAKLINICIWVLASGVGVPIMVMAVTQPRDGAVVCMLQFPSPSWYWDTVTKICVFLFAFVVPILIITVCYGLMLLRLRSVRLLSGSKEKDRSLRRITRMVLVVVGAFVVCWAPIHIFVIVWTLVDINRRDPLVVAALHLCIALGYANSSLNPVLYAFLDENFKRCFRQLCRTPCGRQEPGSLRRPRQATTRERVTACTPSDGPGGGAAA
T3 sequence (P97266 whole entry): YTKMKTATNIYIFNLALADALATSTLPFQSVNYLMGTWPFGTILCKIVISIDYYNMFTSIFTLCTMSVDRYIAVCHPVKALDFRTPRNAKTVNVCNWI

Compound	Ki [1] [nM]	Ki [2] [nM]	IC50 [3] [nM]	Ki [4] [nM]	Ki [5] [nM]	IC50 [6] [nM]
CNC(=O)C(N)Cc1c(C)cc(O)cc1C (stereo not drawn) [H-Dmt-NH-CH3]	7.45	460				
Cc1cc(O)cc(C)c1C[C@H](N)C(=O)N1CCC[C@H]1C(=O)N[C@@H](Cc1c(C)cccc1C(C)C)C(=O)N[C@@H](Cc1ccccc1)C(N)=O [compound 46, H-Dmt-Pro-Imp-Phe-NH2]			0.2	0.32	4.61	5.56
C=CCN[C@@H](Cc1c(C)cc(O)cc1C)C(=O)N1CCC[C@H]1C(=O)N[C@@H](Cc1c[nH]c2ccccc12)C(=O)N[C@@H](Cc1ccccc1)C(N)=O [compound 47, [N-allyl-Dmt^1]EM-1]			> 10000	0.26	10.3	> 10000
C=CCN[C@@H](Cc1c(C)cc(O)cc1C)C(=O)N1CCC[C@H]1C(=O)N[C@@H](Cc1ccccc1)C(=O)N[C@@H](Cc1ccccc1)C(N)=O [compound 48, [N-allyl-Dmt^1]EM-2]			> 10000	0.45	560	> 10000
C=CCNC(Cc1c(C)cc(O)cc1C)C(=O)NCCCCCCNC(=O)C(Cc1c(C)cc(O)cc1C)NCC=C (stereo not drawn) [compound 49, 1,6-bis[N-allyl-Dmt-NH]hexane]			> 10000	12.4	51.5	> 10000
C=CCNC(Cc1c(C)cc(O)cc1C)C(=O)NCCCc1[nH]c(=O)c(CCCNC(=O)C(Cc2c(C)cc(O)cc2C)NCC=C)nc1C (stereo not drawn) [compound 50, 3,6-bis[N-allyl-Dmt-NH-propyl]-5-methyl-2(1H)-pyrazinone]			> 10000	6.94	77.8	> 10000
Cc1cc(O)cc(C)c1C[C@H](N)C(=O)NCCNC(=O)[C@@H](N)Cc1c(C)cc(O)cc1C [compound 51, Dmt-NH-(CH2)2-NH-Dmt]			2840	1.43	116	> 10000
Cc1cc(O)cc(C)c1C[C@H](N)C(=O)NCCCCNC(=O)[C@@H](N)Cc1c(C)cc(O)cc1C [compound 52, Dmt-NH-(CH2)4-NH-Dmt]			5.33	0.041	53.4	> 10000
Cc1cc(O)cc(C)c1C[C@H](N)C(=O)NCCCCCCNC(=O)[C@@H](N)Cc1c(C)cc(O)cc1C [compound 53, Dmt-NH-(CH2)6-NH-Dmt]			3.08	0.053	46.1	> 10000
Cc1cc(O)cc(C)c1C[C@H](N)C(=O)NCCCCCCCCNC(=O)[C@@H](N)Cc1c(C)cc(O)cc1C [compound 54, Dmt-NH-(CH2)8-NH-Dmt]			53.7	0.19	14.8	> 10000
Cc1cc(O)cc(C)c1CC(N)C(=O)NCc1[nH]c(=O)c(CNC(=O)C(N)Cc2c(C)cc(O)cc2C)nc1C (stereo not drawn) [compound 55, 3,6-bis[Dmt-NH-CH2]-5-methyl-2(1H)-pyrazinone]			1700	1.16	15.7	> 10000
Cc1cc(O)cc(C)c1CC(N)C(=O)NCCCc1[nH]c(=O)c(CCCNC(=O)C(N)Cc2c(C)cc(O)cc2C)nc1C (stereo not drawn) [compound 57, 3,6-bis[Dmt-NH(CH2)3]-5-methyl-2(1H)-pyrazinone]			1.33	0.042	13.2	> 10000
Cc1cc(O)cc(C)c1CC(N)C(=O)NCCCCc1[nH]c(=O)c(CCCCNC(=O)C(N)Cc2c(C)cc(O)cc2C)nc1C (stereo not drawn) [compound 58, 3,6-bis[Dmt-NH(CH2)4]-5-methyl-2(1H)-pyrazinone]			1.9	0.114	23.2	41.5
Cc1cc(O)cc(C)c1CC(N)C(=O)N1Cc2ccccc2CC1C(=O)NCc1[nH]c(=O)c(CNC(=O)C2Cc3ccccc3CN2C(=O)C(N)Cc2c(C)cc(O)cc2C)nc1C (stereo not drawn) [compound 59, 3,6-bis[Dmt-Tic-NH-CH2]-5-methyl-2(1H)-pyrazinone]			> 10000	3.76	0.163	> 10000
Cc1cc(O)cc(C)c1CC(N)C(=O)N1Cc2ccccc2CC1C(=O)NCCc1[nH]c(=O)c(CCNC(=O)C2Cc3ccccc3CN2C(=O)C(N)Cc2c(C)cc(O)cc2C)nc1C (stereo not drawn) [compound 60, 3,6-bis[Dmt-Tic-NH(CH2)2]-5-methyl-2(1H)-pyrazinone]			> 10000	2.83	0.095	> 10000
Cc1cc(O)cc(C)c1CC(N)C(=O)N1Cc2ccccc2CC1C(=O)NCCCc1[nH]c(=O)c(CCCNC(=O)C2Cc3ccccc3CN2C(=O)C(N)Cc2c(C)cc(O)cc2C)nc1C (stereo not drawn) [compound 61, 3,6-bis[Dmt-Tic-NH(CH2)3]-5-methyl-2(1H)-pyrazinone]			7020	3.08	0.155	> 10000
Cc1cc(O)cc(C)c1CC(N)C(=O)N1Cc2ccccc2CC1C(=O)NCCCCc1[nH]c(=O)c(CCCCNC(=O)C2Cc3ccccc3CN2C(=O)C(N)Cc2c(C)cc(O)cc2C)nc1C (stereo not drawn) [compound 62, 3,6-bis[Dmt-Tic-NH(CH2)4]-5-methyl-2(1H)-pyrazinone]			> 10000	1.74	0.323	> 10000
Cc1cc(O)cc(C)c1CC(N)C(=O)N1Cc2ccccc2CC1C(=O)NCCCCc1[nH]c(=O)c(CCCNC(=O)C2Cc3ccccc3CN2C(=O)C(N)Cc2c(C)cc(O)cc2C)nc1C (stereo not drawn) [compound 63, 3-[Dmt-Tic-NH(CH2)3]-6-[Dmt-Tic-NH(CH2)4]-5-methyl-2(1H)-pyrazinone]			> 10000	1.56	0.16	> 10000
Cc1cc(O)cc(C)c1CC(N)C(=O)N1Cc2ccccc2CC1C(=O)NCCCCc1nc(C)c(CCCNC(=O)C2Cc3ccccc3CN2C(=O)C(N)Cc2c(C)cc(O)cc2C)[nH]c1=O (stereo not drawn) [compound 64, 3-[Dmt-Tic-NH(CH2)4]-6-[Dmt-Tic-NH(CH2)3]-5-methyl-2(1H)-pyrazinone]			> 10000	2.28	0.092	> 10000
Cc1cc(O)cc(C)c1CC(N)C(=O)N1Cc2ccccc2CC1C(=O)NCCCCc1[nH]c(=O)c(CCNC(=O)C2Cc3ccccc3CN2C(=O)C(N)Cc2c(C)cc(O)cc2C)nc1C (stereo not drawn) [compound 65, 3-[Dmt-Tic-NH(CH2)2]-6-[Dmt-Tic-NH(CH2)4]-5-methyl-2(1H)-pyrazinone]			> 10000	1.37	0.107	> 10000
Cc1cc(O)cc(C)c1C[C@H](N)C(=O)N1Cc2ccccc2C[C@H]1C(=O)NCCCCNC(=O)[C@@H]1Cc2ccccc2CN1C(=O)[C@@H](N)Cc1c(C)cc(O)cc1C [compound 66, bis[Dmt-Tic-NH]butane]			> 10000	5.72	0.124	> 10000
Cc1cc(O)cc(C)c1C[C@H](N)C(=O)N1Cc2ccccc2C[C@H]1C(=O)NCCCCCCCCCCNC(=O)[C@@H]1Cc2ccccc2CN1C(=O)[C@@H](N)Cc1c(C)cc(O)cc1C [compound 68, bis[Dmt-Tic-NH]decane]			5420	4.86	1.53	> 10000
Cc1cc(O)cc(C)c1CC(C(=O)N1Cc2ccccc2CC1C(=O)NCCCCCCNC(=O)C1Cc2ccccc2CN1C(=O)C(Cc1c(C)cc(O)cc1C)N(C)C)N(C)C (stereo not drawn) [compound 69, bis[N,N-dimethyl-Dmt-Tic-NH]hexane]			> 10000	2.21	0.06	> 10000
Cc1cc(O)cc(C)c1CC(C(=O)N1Cc2ccccc2CC1C(=O)NCCCc1[nH]c(=O)c(CCCNC(=O)C2Cc3ccccc3CN2C(=O)C(Cc2c(C)cc(O)cc2C)N(C)C)nc1C)N(C)C (stereo not drawn) [compound 70, 3,6-bis[N,N-dimethyl-Dmt-Tic-NH-propyl]-5-methyl-2(1H)-pyrazinone]			> 10000	1.68	0.287	> 10000
H-Dit-Pro-Phe-Phe-NH2 [compound 38]			299	2.29	105	> 10000
H-Dmt-Pro-Mmp-Phe-NH2 [compound 40]			0.16	0.18	4.61	> 10000
H-Dmt-Pro-Tmp-Phe-NH2 [compound 44]			0.21	0.18	1.83	> 10000
H-Mmt-Pro-Phe-Phe-NH2 [compound 34]			0.924	0.132	529	28.7
H-Tmt-Pro-Phe-Phe-NH2 [compound 39]			2.31	0.111	594	46.4
